Measurements: patent US20030096831A1, “Ocular growth and nicotinic antagonists” (priority 2000, published 2003)
Where “and” joins values, the source holds several entries; their conditions need not be identical. Identical values can stand only once. Entries after “also recorded” stand apart in the source; their conditions may differ. Counter-ions that a name gives are not always drawn.

Experiments:
non-goggled eyes = assay: Eye growth and refraction of non-goggled (open) eyes, intravitreal drug for one week
form deprived eye = assay: Longer term effects of single-dose chlorisondamine on form deprivation myopia; assay type: in vivo, chicks; settings: for Refraction Difference: goggled minus contralateral eye
Method: Longer term effects of single-dose chlorisondamine. In a separate experiment, another group of goggled chicks received a single intravitreal dose of 200 μg of chlorisondamine to the form deprived eye and saline to the contralateral eye only at the time of goggle application. They were compared to a group of unilaterally goggled chicks receiving a single saline injection to both eyes only at the time of goggle application. Neither group received subsequent intraocular injections. These chicks were evaluated by refractometry and ultrasound 4 days later, using ketamine/xylazine anesthesia. At one week after goggle application and single drug injection, the same chicks were evaluated again with refractometry, ultrasonography and caliper measurements of enucleated eyes as described above.

[1] = tested on: chick eye (intraocular muscles, refraction, ocular dimensions); assay: Acute drug effects after a single intravitreal injection (pupil, refractometry, ultrasonography); assay type: in vivo, chicks
Method: Acute drug effects. To assess acute drug effects, other two-week old chicks (n=5/group) received a single unilateral intravitreal injection of one of the nicotinic antagonists at doses chosen based on drug effects on the growth of goggled eyes: 200 μg chlorisondamine, 50 μg and 1 μg mecamylamine, 5 μg methyllycaconitine or […] dihydro-β-erythroidine. Just before and at two hours and 24 hours after injection, both eyes were examined by refractometry and ultrasonography by the above methods.

[2] = tested on: retina, retinal pigment epithelium, choroid; assay: Histopathological effects on goggled and never-goggled eyes; assay type: in vivo, chicks; settings: one week
Method: Histopathological effects. To identify potential histopathologic effects in other groups of monocularly deprived or never-goggled one-week old chicks, chlorisondamine (200 or 100 μg every other day; n=5-6/group), mecamylamine (200 or 50 μg daily; n=5-8/group) or saline vehicle (n=3-9/group) was administered by intravitreal injection to the goggled eyes or to one of the open eyes of never-goggled chicks with vehicle to the contralateral eye, using the identical protocol as above. After one week of treatment, the above protocols provided refraction, ultrasound and caliper measurements. The eyes were then immersion fixed in 3% glutaraldehyde/0.5% paraformaldehyde in 0.1M phosphate buffer, pH 7.4. The posterior segments were either embedded in paraffin, cut at 5 μm thickness and stained with hematoxylin and eosin, or embedded in historesin, cut at 3 μm or 5 μm thickness and stained with 0.5% azure II/0.5% methylene blue in 1% borate.

[3] = tested on: goggled eyes (form-deprivation myopia); assay: Form-deprivation myopia in unilaterally goggled chicks, intravitreal drug for one week; settings: for axial length measured by digital calipers, goggled eyes, drug effect / axial length measured by ultrasound, goggled eyes, drug effect / equatorial diameter measured by calipers (equatorial expansion of vitreous cavity), goggled eyes, drug effect / refraction of goggled eyes (myopic refractive error), drug effect / vitreous cavity length measured by ultrasound, goggled eyes, drug effect: difference goggled vs contralateral open eye, ANOVA over all doses; for axial length measured by digital calipers, goggled eyes, drug effect / axial length measured by ultrasound, goggled eyes, drug effect / equatorial diameter measured by calipers (equatorial expansion of vitreous cavity), goggled eyes, drug effect / refraction of goggled eyes (myopic refractive error), drug effect / vitreous cavity length measured by ultrasound, goggled eyes, drug effect / overall effect on excessive ocular growth / experimental myopia of goggled eyes / anterior chamber depth of goggled eyes, drug effect: intravitreal; for anterior chamber depth of goggled eyes, drug effect: ANOVA
[4] = never-goggled chicks, drug treated vs contralateral vehicle treated eye, ANOVA on ranks
[5] = non-goggled chicks, treated eyes, P<0.05
[6] = 1 Week after single 200 μg dose
[7] = 4 Days after single 200 μg dose
[8] = 2 hours after 200 μg single intravitreal injection
[9] = 24 hours after 200 μg single intravitreal injection
[10] = 100 μg every other day, goggled or non-goggled eyes
[11] = goggled chicks, P<0.05, dose groups that differ
[12] = goggled chicks, P<0.05, dose groups that differ, listed as Chlorisondamine
[13] = two hours after single intravitreal injection of 50 μg
[14] = one week, listed as Dihydro-β-erythroidine, hydrobromide

## C[N+](C)(C)CC[N+]1(C)Cc2c(Cl)c(Cl)c(Cl)c(Cl)c2C1 [chlorisondamine, chlorisondamine diiodide]
non-goggled eyes; never-goggled chicks, ANOVA on ranks
  equatorial expansion of the vitreous cavity, non-goggled drug-treated eyes: did not reach statistical significance
non-goggled eyes; never-goggled chicks, both eyes of the 10 μg group compared to 50, 100 or 200 μg doses and saline chicks
  increase in lens thickness: about 0.1 mm
non-goggled eyes; [4]
  axial expansion of the vitreous cavity, non-goggled drug-treated eyes: growth reduction was confined to the vitreous cavity; also recorded: inhibited the axial expansion of the vitreous cavity
  axial length by calipers, non-goggled drug-treated eyes: reduced the axial growth of drug-treated eyes; also recorded: reduced axial length
  axial length by ultrasound, non-goggled drug-treated eyes: reduced the axial growth of drug-treated eyes; also recorded: reduced axial length
  refraction of non-goggled drug-treated eyes: hyperopic shift in refraction; also recorded: shifted overall refraction towards hyperopia
non-goggled eyes; [5]
  Ultrasound measurements vitreous cavity depth: statistically significant post hoc pairwise comparisons (Tukey test): 100 μg and 50 μg and 100 μg vs. 50 μg
  refraction: statistically significant post hoc pairwise comparisons (Tukey test): 200 μg and 10 μg and 200 μg vs. 10 μg
Form deprived eye; 1 Week
  axial length difference (ultrasound), ratio-chlorisondamine/vehicle: 0.54
  vitreous cavity length difference, ratio-chlorisondamine/vehicle: 0.71
Form deprived eye; [6]
  Caliper Measurements axial length difference: 0.22 ± 0.10 mm**
  Caliper Measurements equatorial diameter difference: 0.17 ± 0.07 mm****
  Ultrasound Measurements axial length difference: 0.33 ± 0.11 mm**
  Ultrasound Measurements vitreous cavity length difference: 0.49 ± 0.08 mm*
  Refraction Difference: −8.58 ± 2.06 diopters
Form deprived eye; 4 Days
  axial length difference (ultrasound), ratio-chlorisondamine/vehicle: 0.47
  vitreous cavity length difference, ratio-chlorisondamine/vehicle: 0.70
Form deprived eye; [7]
  Ultrasound Measurements axial length difference: 0.20 ± 0.07 mm***
  Ultrasound Measurements vitreous cavity length difference: 0.28 ± 0.06 mm
  Refraction Difference: −2.98 ± 1.88 diopters**
Form deprived eye; single dose of 200 μg at the time of goggle application, over the next week
  response for form deprivation after a single dose, in words: significantly blunted the response for form deprivation over the next week
[1]; 2 and 24 hours after single intravitreal injection
  acute effect on ultrasound measurements of ocular dimensions, in words: transiently reducing axial and vitreous cavity lengths at the 2 hour but not at the 24 hour reading
[1]; [8]
  reduction in axial length by ultrasonography: 0.16±0.04 mm
  reduction in posterior chamber depth by ultrasonography: 0.20±0.07 mm
  reduction of lens thickness: 0.12±0.04 mm
[1]; [9]
  axial length and posterior chamber depth at 24 hours: returned to baseline
  reduction of lens thickness: 0.16±0.05 mm
[1]; 24 hours after single intravitreal injection (chlorisondamine 200 μg)
  pupil diameter, change from baseline: 0.7±0.2 mm
[1]; two hours after single intravitreal injection of 200 μg
  pupil diameter, change from baseline: 0.8±0.1 mm
[2]; [10]
  gross inspection of the eye cups: either a normal fundus or only mild peripheral pigmentary changes
  histology: Some eyes had normal histology, some showed a single large, smooth hyper-pigmented inclusion within a rare RPE cell as the sole detectable histologic change, and some had a small isolated peripheral patch of the marked RPE/choriocapillaris pathology
[2]; 200 μg every other day, most goggled eyes (4/5) and all never-goggled eyes (n=5)
  gross inspection of the eye cup: mild to marked mottling and depigmentation of the mid-peripheral fundus
[2]; 200 μg every other day, regions corresponding to peripheral depigmented areas
  histology of tissue sections: marked disruption and clumping of cells of the retinal pigment epithelium (RPE)
[3]; one week
  axial length measured by digital calipers, goggled eyes, drug effect: inhibited the excessive axial elongation developing beneath a goggle
  axial length measured by ultrasound, goggled eyes, drug effect: inhibited the excessive axial elongation developing beneath a goggle
  equatorial diameter measured by calipers (equatorial expansion of vitreous cavity), goggled eyes, drug effect: reduced the vitreous cavity expansion
  refraction of goggled eyes (myopic refractive error), drug effect: reduced the myopic refractive error; also recorded: influenced the myopic refraction occurring beneath a goggle
  vitreous cavity length measured by ultrasound, goggled eyes, drug effect: reduced the vitreous cavity expansion
  overall effect on excessive ocular growth / experimental myopia of goggled eyes: reduced the excessive ocular growth occurring beneath a goggle
  anterior chamber depth of goggled eyes, drug effect: no statistically significant effect
[3]; [11]
  Ultrasound measurements vitreous cavity depth: statistically significant post hoc pairwise comparisons (Tukey test): 100 μg vs. 50 μg
[3]; [12]
  Ultrasound measurements axial length: statistically significant post hoc pairwise comparisons (Tukey test): significant drug effects compared to the vehicle-treated controls
  Ultrasound measurements vitreous cavity depth: statistically significant post hoc pairwise comparisons (Tukey test): significant drug effects compared to the vehicle-treated controls
  refraction: statistically significant post hoc pairwise comparisons (Tukey test): significant drug effects compared to the vehicle-treated controls

## Br.COC1CC=C2CCN3CCC4=C(CC(=O)OC4)C23C1 (stereo not drawn) [dihydro-β-erythroidine, dihydro-β-crythroidine hydrobromide]
[1]; [13]
  pupil diameter, change from baseline: 1.0±0.1 mm
[3]; one week
  axial length measured by digital calipers, goggled eyes, drug effect: significant reduction
  axial length measured by ultrasound, goggled eyes, drug effect: none of the differences in refraction, ultrasound measurements or caliper measurements of the equatorial diameter reached statistical significance
  equatorial diameter measured by calipers (equatorial expansion of vitreous cavity), goggled eyes, drug effect: none of the differences in refraction, ultrasound measurements or caliper measurements of the equatorial diameter reached statistical significance
  vitreous cavity length measured by ultrasound, goggled eyes, drug effect: none of the differences in refraction, ultrasound measurements or caliper measurements of the equatorial diameter reached statistical significance
[3]; one week, hydrobromide
  refraction of goggled eyes (myopic refractive error), drug effect: had no effect on the refraction of visually deprived eyes
  overall effect on excessive ocular growth / experimental myopia of goggled eyes: weaker as only the axial measurements by calipers showed a statistically significant drug effect
[3]; [14]
  refraction of goggled eyes (myopic refractive error), drug effect: none of the differences in refraction, ultrasound measurements or caliper measurements of the equatorial diameter reached statistical significance
  overall effect on excessive ocular growth / experimental myopia of goggled eyes: only a weak effect against experimental myopia
[3]; [11]
  Caliper measurements axial length: statistically significant post hoc pairwise comparisons (Tukey test): no individual drug dose was identified

## CNC1(C)C2CCC(C2)C1(C)C (stereo not shown) [mecamylamine]
non-goggled eyes; daily intravitreal injections, one week, doses of 50, 10 or 1 μg
  growth or refraction of non-goggled eyes: no influence
[1]; 24 hours after single intravitreal injection of 50 μg
  pupil diameter, change from baseline: 0.4±0.1 mm
[1]; two hours after single intravitreal injection of 1 μg
  pupil diameter, change from baseline: 0.8±0.2 mm
[1]; [13]
  pupil diameter, change from baseline: 0.3±0.1 mm
[2]; 200 or 50 μg daily, goggled and non-goggled eyes
  retinas, gross and histological appearance: indistinguishable grossly or histologically from vehicle treated control eyes
[3]; 50 μg daily intravitreal, one week
  induced myopia (refraction) of goggled eyes at the 50 μg dose: virtually eliminated the induced myopia
[3]; one week
  axial length measured by digital calipers, goggled eyes, drug effect: no statistical effect
  axial length measured by ultrasound, goggled eyes, drug effect: only a trend towards a drug effect
  equatorial diameter measured by calipers (equatorial expansion of vitreous cavity), goggled eyes, drug effect: influenced
  refraction of goggled eyes (myopic refractive error), drug effect: altered refraction of goggled eyes; also recorded: influenced the myopic refraction occurring beneath a goggle
  vitreous cavity length measured by ultrasound, goggled eyes, drug effect: influenced the ultrasound measurements of vitreous cavity length
  overall effect on excessive ocular growth / experimental myopia of goggled eyes: multiphasic response that differed between the low and high drug doses; also recorded: reduced the excessive ocular growth occurring beneath a goggle
[3]; [11]
  Caliper measurements equatorial diameter: statistically significant post hoc pairwise comparisons (Tukey test): did not identify any individual doses that differed from the controls
  Ultrasound measurements vitreous cavity depth: statistically significant post hoc pairwise comparisons (Tukey test): 50 μg vs. 1 μg
  refraction: statistically significant post hoc pairwise comparisons (Tukey test): only the 50 μg dose differed significantly from the controls and 200 μg vs. 1 μg and 100 μg vs. 1 μg
[3]; goggled chicks, P<0.05, dose groups that differ, listed as Mecamylamine
  Ultrasound measurements vitreous cavity depth: statistically significant post hoc pairwise comparisons (Tukey test): the 1 μg dose as different from the 50 μg dose but not from the controls
[3]; lowest doses (1 and 10 μg) daily intravitreal
  growth and myopic refractive shift of goggled eyes at the lowest doses: tended toward stimulating the growth and myopic refractive shift of goggled eyes

## CCN1C[C@]2(COC(=O)c3ccccc3N3C(=O)C[C@H](C)C3=O)CC[C@H](OC)[C@@]34[C@@H]5C[C@H]6[C@H](OC)[C@@H]5[C@](O)(C[C@@H]6OC)[C@](O)([C@@H](OC)[C@H]23)[C@@H]14 [methyllycaconitine, methyllcaconitine citrate]
[1]; two hours after single intravitreal injection of 5 μg
  pupil diameter, change from baseline: 0.4±0.2 mm
[3]; one week
  anterior chamber depth of goggled eyes, drug effect: no effect
